The record followed here is article PMC11061835, “Elucidating the Mechanism of Metabolism of Cannabichromene by Human Cytochrome P450s” (Journal of Natural Products, 2024).

One data set has as its target T1, CYP2C9 with CPR (Homo sapiens, UniProt P11712).
T1 construct: His-tag; made in house; host or cells: E. coli DH-5α with pTGro7 plasmid (CYP)
Briefly: NADPH activity assay, CYP2C9 with CPR. The data set is classed as biochemical. The note with it: CYP2C9, CBC 50 μM vs substrate-free. The procedure:
CYP-mediated NADPH oxidation was measured using kinetics mode in a Cary 300 UV–vis spectrometer (Agilent Technologies). 0.2 μM (final concentration) of CYP was taken in 0.1 M potassium phosphate buffer (pH 7.4) and incubated with 0.6 μM (final concentration) of CPR for 5 min with a reaction volume of 400 μL. The reaction was initiated with 200 μM of NADPH, and the absorption change was monitored over 10 min at 340 nm. The rate of NADPH consumption (or NADPH to NADP^+ conversion) was calculated by taking the molar extinction coefficient as 6.22 mM^–1 cm^–1 at 340 nm. To estimate the change in NADPH oxidation in the presence of CBC, both CYP and CPR were further incubated using CBC (final concentration 50 μM) for 5 min followed by measuring the change in absorbance at 340 nm as discussed earlier.

In a further data set the target is T2, CYP2C8 (Homo sapiens, UniProt P10632).
T2 construct: His-tag; made in house; host or cells: E. coli DH-5α with pTGro7 plasmid
T2 sequence (P10632 1-490): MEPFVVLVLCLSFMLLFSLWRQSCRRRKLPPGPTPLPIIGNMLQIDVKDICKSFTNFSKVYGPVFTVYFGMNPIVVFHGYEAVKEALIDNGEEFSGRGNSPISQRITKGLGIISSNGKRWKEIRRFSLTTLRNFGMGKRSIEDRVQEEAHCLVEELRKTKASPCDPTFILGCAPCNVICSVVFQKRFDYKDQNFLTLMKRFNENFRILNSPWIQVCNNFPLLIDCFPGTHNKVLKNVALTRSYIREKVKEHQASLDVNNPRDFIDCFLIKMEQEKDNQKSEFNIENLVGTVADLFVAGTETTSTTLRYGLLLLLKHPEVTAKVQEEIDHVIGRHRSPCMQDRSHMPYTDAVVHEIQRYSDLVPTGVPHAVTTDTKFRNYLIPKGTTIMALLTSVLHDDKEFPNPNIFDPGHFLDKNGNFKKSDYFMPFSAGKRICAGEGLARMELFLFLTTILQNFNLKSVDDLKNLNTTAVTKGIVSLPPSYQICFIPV
Briefly: CBC metabolism by CYP2C8. In kind it is in vitro ADME. The note with it: CYP2C8, from Vmax. On the procedure:
To study the kinetics of CBC metabolism, concentration dependent metabolism of CBC was carried out in the presence of various CYPs using the following procedure. CYP2J2, CYP2C8, CYP2D6, CYP2C9, and CYP3A4 (final concentration 0.5 μM) were initially dissolved in lipid containing POPC:POPS (8:2 v/v) followed by addition of CPR (final concentration 0.6 μM) in 0.1 M potassium phosphate buffer (pH 7.4). CBC (5–80 μM) was added and incubated at 37 °C for 10 min. The reaction was triggered by NADPH and extracted using the exact sample protocol as mentioned in the HLM section.
Samples were analyzed with the 5500 QTRAP LC/MS/MS system (Sciex, Framingham, MA) in the Metabolomics Lab of Roy J. Carver Biotechnology Center, University of Illinois at Urbana–Champaign. Software Analyst 1.7.1 was used for data acquisition and analysis. The 1200 series HPLC system (Agilent Technologies, Santa Clara, CA) includes a degasser, an autosampler, and a binary pump. […] Multiple reaction monitoring (MRM) was used for quantitation: CBC m/z 315.1 → m/z 135.0; 1-acetoxy-6′,7′-dihydroxy-CBC (JM-I-73) m/z 349.1→ m/z 193.0; 1″-hydroxy-CBC (JM-I-66) m/z 331.1→ m/z 275.1; 6′,7′-epoxy-CBC (JM-I-27) m/z 331.1→ m/z 193.0; 7′,10′-ene-6′-hydroxy-CBC (JM-I-30) m/z 331.1→ m/z 193.0; 8′-hydroxy-CBC (JM-I-32) […]→ m/z 77.0. Internal standard EET-EA-d11 was monitored at m/z 375.2→ m/z 357.1.

T1 sequence (P11712 whole entry): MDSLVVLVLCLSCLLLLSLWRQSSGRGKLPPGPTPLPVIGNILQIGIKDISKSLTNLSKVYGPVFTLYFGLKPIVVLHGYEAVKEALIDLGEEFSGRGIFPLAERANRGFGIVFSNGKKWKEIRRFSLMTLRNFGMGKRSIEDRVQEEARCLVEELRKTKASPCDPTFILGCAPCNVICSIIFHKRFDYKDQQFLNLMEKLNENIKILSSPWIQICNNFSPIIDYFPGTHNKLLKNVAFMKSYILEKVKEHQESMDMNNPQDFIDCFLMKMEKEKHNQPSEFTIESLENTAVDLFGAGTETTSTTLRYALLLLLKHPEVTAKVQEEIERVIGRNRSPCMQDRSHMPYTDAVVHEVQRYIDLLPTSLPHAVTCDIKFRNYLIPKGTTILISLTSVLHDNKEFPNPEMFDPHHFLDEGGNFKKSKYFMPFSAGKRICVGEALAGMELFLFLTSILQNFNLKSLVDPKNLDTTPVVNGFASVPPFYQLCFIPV
T1 sequence (P16435 whole entry partner): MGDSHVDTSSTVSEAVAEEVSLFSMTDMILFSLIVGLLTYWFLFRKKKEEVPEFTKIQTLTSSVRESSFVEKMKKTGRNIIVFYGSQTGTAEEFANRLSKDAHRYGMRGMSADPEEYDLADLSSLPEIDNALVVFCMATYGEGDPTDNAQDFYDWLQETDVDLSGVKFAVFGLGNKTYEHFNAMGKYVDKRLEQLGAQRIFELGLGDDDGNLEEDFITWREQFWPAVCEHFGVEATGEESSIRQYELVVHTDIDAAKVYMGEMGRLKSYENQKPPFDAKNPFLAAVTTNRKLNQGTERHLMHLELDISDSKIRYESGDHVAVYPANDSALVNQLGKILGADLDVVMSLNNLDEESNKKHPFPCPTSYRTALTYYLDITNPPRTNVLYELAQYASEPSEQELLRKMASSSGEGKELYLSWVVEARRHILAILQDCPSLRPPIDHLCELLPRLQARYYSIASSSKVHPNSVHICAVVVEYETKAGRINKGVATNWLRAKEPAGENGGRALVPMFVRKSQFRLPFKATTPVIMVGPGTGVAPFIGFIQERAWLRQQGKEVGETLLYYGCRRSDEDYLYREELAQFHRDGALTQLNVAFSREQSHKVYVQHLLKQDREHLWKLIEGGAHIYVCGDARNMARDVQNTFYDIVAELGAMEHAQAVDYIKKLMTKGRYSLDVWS

Consider `CCCCCc1cc(O)c2c(c1)OC(C)(CCC=C(C)C)C=C2` (centres unmarked) [CBC, Cannabichromene], for which the “percentage increase of NADPH consumption in the presence of CBC” value on CYP2C9 with CPR is roughly 90%.
For `CCCCCc1cc(O)c2c(c1)OC(C)(CC/C=C(\C)CO)C=C2` (centres unmarked) [8′-hydroxy-CBC], the “ratio of 8′-hydroxy-CBC to 6′,7′-epoxy-CBC formed” value on CYP2C8 is on record as “around 5”.
